Experimental data from patent US20240261258A1, “Presurgical Perineural Administration of Resiniferatoxin For Reduction of Post-Operative Pain” (Sorrento Therapeutics, Inc., priority 2021, published 2024).

Legend:
[1] = tested on: dog undergoing TPLO, femoral and sciatic nerves; assay: TPLO in a single dog after perineural RTX (Example A); assay type: in vivo
Procedure: A TPLO (Tibial Plateau Osteotomy) was performed on a single dog. Before surgery, 25 μg RTX was administered perineurally to the femoral and sciatic nerves. The procedure included cutting the bone in the leg, changing the angle of the knee articulation, screwing in a plate, and resewing muscle that was cut to access the knee.
After waking up, all of the dog's motor functions were preserved. […] The dog was able to put the affected leg down from time to time when ambulating but, as would be expected, the leg was not fully weight-bearing.

[2] = tested on: healthy dogs undergoing TPLO surgery; assay: Post-surgical evaluations (weight bearing, withdrawal reflex, proprioception, VAS, GCPS, injection and surgical site); assay type: in vivo, dog
Source text: Before the subjects underwent surgery, baseline data including a physical examination, hindlimb motor evaluation, hindlimb sensory evaluation, site of injection evaluation, and surgical site evaluation were collected. During the 8-week post-operative follow-up period on day 1, 2, 3, 14, 28, and 56 all the above parameters were reevaluated by a researcher who was blinded to the treatment.
After observing the animal in its cage and after evaluating the subject walking, the overall pain was scored using a visual analog scale (VAS) and the short form of the Glasgow composite pain scale (GCPS). The VAS consisted of a straight line 10 cm long with the left end, 0 cm, indicating no pain and the right end, 10 cm, indicating unbearable pain. The user placed a mark on the line that best represented the intensity of the subject's pain. Animals with a VAS greater than 4 cm and a GCPS greater that 6 were considered painful and received intramuscular hydromorphone at 0.1 mg/kg.
(§1) The injection site of RTX or local anesthetic was evaluated by visual examination (normal, red, swollen) and palpation (no pain, mild, severe). The surgical site was evaluated by visual examination (normal, red, swollen) and with the aid of an algometer. With the dog in lateral recumbency, the tip of the algometer was placed on the surgical site and pressure was manually applied until the animal moved the leg. During the baseline data collection, several measurements were taken until 3 measurements were within ±1 Newton (N). The number recorded corresponded to the average of these 3 values. After surgery, the force was applied only once. Data were collected from both the left (treated) and the right (non-treated) hindlimbs.
The withdrawal reflex and proprioception were assessed and scored as normal, decreased, or absent. The motor function was evaluated by encouraging the dog to stand and walk. Weight bearing standing and walking was scored as: normal, decreased (dog uses the leg but prefers the non-operated leg), or absent (dog avoids using the operated leg).

[3] = tested on: healthy dogs undergoing TPLO surgery; assay: Algometer measurements on the surgical site; assay type: in vivo, dog
Procedure: as §1
Mean plus or minus the standard deviation (±SD) force in Newton was recorded at the pressure applied on the surgical incision when the subject moved the leg from the algometer. The left side was the treated stifle.

[4] = tested on: CGRP immunopositive axons of sciatic and femoral nerves; assay: Quantification of CGRP immunopositive nerve fibers; assay type: in vivo, dog
Procedure: FIGS. 1A-J show density of CGRP immunopositive axons in representative confocal images of ipsilateral (left; A-D) and contralateral (right; E-H) sciatic nerve from dogs post-TPLO and after different treatment and doses of RTX. Each bar represents the mean±SEM. Data were analyzed by one-way ANOVA followed by Tukey post hoc test; *p<0.05. FIGS. 1I-J are bar graphs of the density of CGRP immunopositive axons, (density of nerve fibers in mm/mm3) in ipsilateral (I) and contralateral (J) sciatic nerves as measured in n subjects in each group.
FIGS. 3A-J show CGRP immunopositive axon density in representative confocal images of ipsilateral (left; A-D) and contralateral (right; E-H) femoral nerve from dogs post-TPLO surgery and after different treatment and doses of RTX. Each bar represents the mean±SEM. Data were analyzed by one-way ANOVA followed by Tukey post hoc test; *p<0.05. FIGS. 3I-J are bar graphs of the density of CGRP immunopositive axons (density of nerve fibers in mm/mm3) in ipsilateral (I), and contralateral (J) femoral nerves as measured in n subjects in each group.
The effects of different routes of administration and/or different doses of RTX on the density of CGRP immunopositive axons in the ipsilateral (left) and contralateral (right) sciatic nerves are shown in FIG. 1. […] However, statistical significance was observed only with the dose of 12.5 μg (25 μg total; p=0.0184) per nerve of RTX. FIGS. 1E-H show the effect of different treatment and doses of RTX on the density of CGRP nerve axons innervating the contralateral (right) sciatic nerve from animals post-TPLO.

[5] = 25 μg RTX perineurally before surgery
[6] = Group 1 High, 25 μg total F/Sc nerve block
[7] = Group 2 Low, 6.25 μg total F/Sc nerve block
[8] = all subjects and timepoints, cutoff for painful

C=C(C)[C@]12C[C@@H](C)[C@@]34O[C@](Cc5ccccc5)(O[C@@H]1[C@@H]3C=C(COC(=O)Cc1ccc(O)c(OC)c1)C[C@]1(O)C(=O)C(C)=C[C@@H]41)O2 [RTX, resiniferatoxin]
Additional pain medications when the dog woke up [1, 5]: No additional pain medications
Motor functions after waking up [1, 5]: preserved
Need to deepen the general anesthesia during cutting of the bone [1, 5]: no need to deepen the general anesthesia
Need to increase the opioid dose for the last part of the surgery [1, 5]: no need to increase the opioid dose
Pain at manipulation, inflammation, and swelling (standardized veterinary post-surgical pain scale) [1, 5]: lower than expected
Time until the dog was up and walking [1, 5]: Within a couple of hours
Reaction of the dog during cutting of the bone ([1]; 25 μg RTX perineurally to femoral and sciatic nerves before surgery): no reaction
Use of leg within 2 hours of surgery: Intermittent toe touching (dogs/group) [2, 6]: touching: 2/4
Use of leg within 2 hours of surgery: Normal (dogs/group) [2, 6]: Normal: 2/4
Use of leg within 2 hours of surgery: Absent (dogs/group) [2, 7]: Absent: 1/4
Use of leg within 2 hours of surgery: Intermittent toe touching (dogs/group) [2, 7]: touching: 3/4;
Use of leg within 2 hours of surgery: Absent (dogs/group) ([2]; Group 3 Local, 50 μg on bone incision + 5 mg bupivacaine block): Absent: 4/4
Injection site finding in one subject ([2]; a subject in group 1, both resolved within 24 hours): minimal reaction upon palpation at day 1 and a small red area at day 3
Injection site finding in one subject ([2]; a subject in group 3): small non-painful red area at day 14
Injection site appearance ([2]; all animals): normal
Withdrawal reflex ([2]; all dogs at all time points): normal
Time for redness and swollen areas around the surgical incision to resolve ([2]; all dogs, regardless of group, after surgery): 2 to 3 days
GCPS (short form Glasgow composite pain scale) score [2, 8]: < 6
VAS pain score [2, 8]: < 4 cm
Weight bearing scores ([2]; day 14, 28, and 56, all dogs except for one in group 2 (interdigital cyst)): normal scores
Efficacy on post-operative pain ([2]; perineural injection at 6.25 μg and 25 μg RTX total in dogs undergoing TPLO surgery): short-term efficacy in treating post-operative pain
Algometer force on surgical site when the dog moved the leg (mean ± SD) ([3]; Baseline, L (treated) hindlimb, Group 1 High, 25 μg): 7.4 ± 3.1 Newton
Algometer force on surgical site when the dog moved the leg (mean ± SD) ([3]; Baseline, L (treated) hindlimb, Group 2 Low, 6.25 μg): 6.2 ± 2.3 Newton
Algometer force on surgical site when the dog moved the leg (mean ± SD) ([3]; Baseline, L (treated) hindlimb, Group 3 Local, 50 μg): 5.7 ± 2.5 Newton
Algometer force on surgical site when the dog moved the leg (mean ± SD) ([3]; Baseline, R (non-treated) hindlimb, Group 1 High, 25 μg): 7.1 ± 3.7 Newton
Algometer force on surgical site when the dog moved the leg (mean ± SD) ([3]; Baseline, R (non-treated) hindlimb, Group 2 Low, 6.25 μg): 7.0 ± 2.3 Newton
Algometer force on surgical site when the dog moved the leg (mean ± SD) ([3]; Baseline, R (non-treated) hindlimb, Group 3 Local, 50 μg): 8.5 ± 2.4 Newton
Algometer force on surgical site when the dog moved the leg (mean ± SD) ([3]; Day 1, L (treated) hindlimb, Group 1 High, 25 μg): 7.4 ± 5.9 Newton
Algometer force on surgical site when the dog moved the leg (mean ± SD) ([3]; Day 1, L (treated) hindlimb, Group 2 Low, 6.25 μg): 5.0 ± 2.1 Newton
Algometer force on surgical site when the dog moved the leg (mean ± SD) ([3]; Day 1, L (treated) hindlimb, Group 3 Local, 50 μg): 9.2 ± 2.1 Newton
Algometer force on surgical site when the dog moved the leg (mean ± SD) ([3]; Day 1, R (non-treated) hindlimb, Group 1 High, 25 μg): 6.1 ± 2.3 Newton
Algometer force on surgical site when the dog moved the leg (mean ± SD) ([3]; Day 1, R (non-treated) hindlimb, Group 2 Low, 6.25 μg): 3.8 ± 1.9 Newton
Algometer force on surgical site when the dog moved the leg (mean ± SD) ([3]; Day 1, R (non-treated) hindlimb, Group 3 Local, 50 μg): 9.6 ± 6.3 Newton
Algometer force on surgical site when the dog moved the leg (mean ± SD) ([3]; Day 2, L (treated) hindlimb, Group 1 High, 25 μg): 5.4 ± 3.3 Newton
Algometer force on surgical site when the dog moved the leg (mean ± SD) ([3]; Day 2, L (treated) hindlimb, Group 2 Low, 6.25 μg): 5.0 ± 2.7 Newton
Algometer force on surgical site when the dog moved the leg (mean ± SD) ([3]; Day 2, L (treated) hindlimb, Group 3 Local, 50 μg): 8.5 ± 1.5 Newton
Algometer force on surgical site when the dog moved the leg (mean ± SD) ([3]; Day 2, R (non-treated) hindlimb, Group 1 High, 25 μg): 4.9 ± 2.1 Newton
Algometer force on surgical site when the dog moved the leg (mean ± SD) ([3]; Day 2, R (non-treated) hindlimb, Group 2 Low, 6.25 μg): 3.7 ± 2.0 Newton
Algometer force on surgical site when the dog moved the leg (mean ± SD) ([3]; Day 2, R (non-treated) hindlimb, Group 3 Local, 50 μg): 6.5 ± 3.5 Newton
Algometer force on surgical site when the dog moved the leg (mean ± SD) ([3]; Day 3, L (treated) hindlimb, Group 1 High, 25 μg): 5.3 ± 1.5 Newton
Algometer force on surgical site when the dog moved the leg (mean ± SD) ([3]; Day 3, L (treated) hindlimb, Group 2 Low, 6.25 μg): 5.9 ± 4.2 Newton
Algometer force on surgical site when the dog moved the leg (mean ± SD) ([3]; Day 3, L (treated) hindlimb, Group 3 Local, 50 μg): 7.7 ± 2.0 Newton
Algometer force on surgical site when the dog moved the leg (mean ± SD) ([3]; Day 3, R (non-treated) hindlimb, Group 1 High, 25 μg): 7.1 ± 1.8 Newton
Algometer force on surgical site when the dog moved the leg (mean ± SD) ([3]; Day 3, R (non-treated) hindlimb, Group 2 Low, 6.25 μg): 6.3 ± 1.5 Newton
Algometer force on surgical site when the dog moved the leg (mean ± SD) ([3]; Day 3, R (non-treated) hindlimb, Group 3 Local, 50 μg): 6.5 ± 3.4 Newton
Algometer force on surgical site when the dog moved the leg (mean ± SD) ([3]; Day 14, L (treated) hindlimb, Group 1 High, 25 μg): 5.3 ± 3.9 Newton
Algometer force on surgical site when the dog moved the leg (mean ± SD) ([3]; Day 14, L (treated) hindlimb, Group 2 Low, 6.25 μg): 2.9 ± 1.2 Newton
Algometer force on surgical site when the dog moved the leg (mean ± SD) ([3]; Day 14, L (treated) hindlimb, Group 3 Local, 50 μg): 6.6 ± 4.2 Newton
Algometer force on surgical site when the dog moved the leg (mean ± SD) ([3]; Day 14, R (non-treated) hindlimb, Group 1 High, 25 μg): 5.0 ± 2.3 Newton
Algometer force on surgical site when the dog moved the leg (mean ± SD) ([3]; Day 14, R (non-treated) hindlimb, Group 2 Low, 6.25 μg): 5.2 ± 1.5 Newton
Algometer force on surgical site when the dog moved the leg (mean ± SD) ([3]; Day 14, R (non-treated) hindlimb, Group 3 Local, 50 μg): 4.7 ± 3.5 Newton
Algometer force on surgical site when the dog moved the leg (mean ± SD) ([3]; Day 28, L (treated) hindlimb, Group 1 High, 25 μg): 5.8 ± 2.4 Newton
Algometer force on surgical site when the dog moved the leg (mean ± SD) ([3]; Day 28, L (treated) hindlimb, Group 2 Low, 6.25 μg): 4.5 ± 3.9 Newton
Algometer force on surgical site when the dog moved the leg (mean ± SD) ([3]; Day 28, L (treated) hindlimb, Group 3 Local, 50 μg): 4.4 ± 2.6 Newton
Algometer force on surgical site when the dog moved the leg (mean ± SD) ([3]; Day 28, R (non-treated) hindlimb, Group 1 High, 25 μg): 4.6 ± 3.5 Newton
Algometer force on surgical site when the dog moved the leg (mean ± SD) ([3]; Day 28, R (non-treated) hindlimb, Group 2 Low, 6.25 μg): 2.7 ± 2.1 Newton
Algometer force on surgical site when the dog moved the leg (mean ± SD) ([3]; Day 28, R (non-treated) hindlimb, Group 3 Local, 50 μg): 5.0 ± 1.9 Newton
Algometer force on surgical site when the dog moved the leg (mean ± SD) ([3]; Day 56, L (treated) hindlimb, Group 1 High, 25 μg): 7.0 ± 3.1 Newton
Algometer force on surgical site when the dog moved the leg (mean ± SD) ([3]; Day 56, L (treated) hindlimb, Group 2 Low, 6.25 μg): 4.9 ± 1.8 Newton
Algometer force on surgical site when the dog moved the leg (mean ± SD) ([3]; Day 56, L (treated) hindlimb, Group 3 Local, 50 μg): 10.9 ± 8.7 Newton
Algometer force on surgical site when the dog moved the leg (mean ± SD) ([3]; Day 56, R (non-treated) hindlimb, Group 1 High, 25 μg): 6.3 ± 1.2 Newton
Algometer force on surgical site when the dog moved the leg (mean ± SD) ([3]; Day 56, R (non-treated) hindlimb, Group 2 Low, 6.25 μg): 5.7 ± 1.7 Newton
Algometer force on surgical site when the dog moved the leg (mean ± SD) ([3]; Day 56, R (non-treated) hindlimb, Group 3 Local, 50 μg): 9.0 ± 4.6 Newton
Density of CGRP nerve axons in the contralateral sciatic nerve vs control treatment ([4]; RTX treated groups, p=0.9565, p=0.7911, p=0.7229): no differences
Density of CGRP nerve axons in the contralateral femoral nerve vs control treatment ([4]; any RTX treatment, p=0.9914, p>0.9999, p=0.1760): did not statistically reduce
Density of CGRP nerve axons in the ipsilateral sciatic nerve vs control treatment ([4]; local administration (50 μg), not statistically significant): reduced the density of CGRP nerve axons
Density of CGRP nerve axons in the ipsilateral sciatic nerve vs control treatment ([4]; peri-neural 3.12 μg per nerve (6.25 μg total), not statistically significant): reduced the density of CGRP nerve axons
Density of CGRP nerve axons in the ipsilateral femoral nerve ([4]; peri-neural 12.5 μg per nerve (25 μg total), p=0.0125): statistically reduced
Density of CGRP nerve axons in the ipsilateral sciatic nerve vs control treatment ([4]; peri-neural 12.5 μg per nerve (25 μg total), statistically significant, p=0.0184): reduced the density of CGRP nerve axons
